From publication PMC13010972 (Chemical communications (Cambridge, England), 2026)

Legend:
[1] = test system: S. enterica; experiment: checkerboard assay with colistin; format: cell-based, Salmonella enterica; settings: R-1 with colistin; FIC < 0.5 indicates synergy
[2] = test system: genes linked to the PhoPQ TCS; settings: cited from earlier work
[3] = test system: polymyxin-resistant S. enterica strain EG9492; settings: co-treatment of resistant strain EG9492s; cited from earlier work

Compound: Nc1nc2ccc(OC(F)(F)F)cc2s1 [R-1, riluzole]
- fractional inhibitory concentration (FIC) value [1]: 0.28
- expression of genes linked to the PhoPQ TCS [2]: downregulation
- change in the colistin MIC [3]: ~ 8 fold
